According to patent US9156796B2, “Benzoimidazole-carboxylic acid amide derivatives as APJ receptor modulators” (SANOFI, priority 2013, dated 2015):

Target: T1, human apelin receptor (Homo sapiens, UniProt P35414)
T1 construct: expressed in transfected cells
T1 sequence (P35414 1-380): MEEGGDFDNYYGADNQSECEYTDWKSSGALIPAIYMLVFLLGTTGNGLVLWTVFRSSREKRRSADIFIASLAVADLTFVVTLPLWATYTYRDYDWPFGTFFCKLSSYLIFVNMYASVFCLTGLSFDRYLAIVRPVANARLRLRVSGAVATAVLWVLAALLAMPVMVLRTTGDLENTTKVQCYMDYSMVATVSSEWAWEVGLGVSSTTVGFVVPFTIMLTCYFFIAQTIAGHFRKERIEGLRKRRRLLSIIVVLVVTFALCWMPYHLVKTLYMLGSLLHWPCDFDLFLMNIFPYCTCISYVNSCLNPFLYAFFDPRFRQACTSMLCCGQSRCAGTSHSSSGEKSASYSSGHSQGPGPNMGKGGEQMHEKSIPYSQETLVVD
Test: Determination of agonism on the human apelin receptor by a calcium fluorescence assay (FLIPR)
Assay type: cell-based
Conditions: HEK293 cells stably transfected with human apelin receptor and Giaq protein, Fluo-4 calcium fluorescence, read-out: EC50 (APJ agonism)
Summary of the method: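 HEK293 cells stably co-expressing human apelin receptor and promiscuous Giaq, loaded 1 h at 37 °C with Fluo-4 (4 μM) in probenecid-containing Hepes buffer, pH 7.4. Compounds, at least 7 concentrations in triplicate, added in FLIPR Tetra; peak calcium fluorescence normalized to 1 μM apelin-13 as 100% to derive EC50.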

Going from CCC(CC)n1c(Cc2cccs2)nc2cc(C(=O)N[C@@H](CC(C)C)C(=O)NCCCCN(C)C)ccc21 [Example 245, 1-(1-Ethyl-propyl)-2-thiophen-2-ylmethyl-1H-benzoimidazole-5-carboxylic acid [(S)-1-(4-dimethylamino-butylcarbamoyl)-3-methyl-butyl]-amide] to CCC(CC)NC(=O)[C@H](CC(C)C)NC(=O)c1ccc2c(c1)nc(Cc1cccs1)n2C(CC)CC [Example 226, 1-(1-Ethyl-propyl)-2-thiophen-2-ylmethyl-1H-benzoimidazole-5-carboxylic acid [(S)-1-(1-ethyl-propylcarbamoyl)-3-methyl-butyl]-amide], the EC50 rises from 0.291 µM to 4.87 µM (17-fold). The first is the more potent here.

First: CC(C)C[C@@H](CC(=O)O)NC(=O)c1ccc2c(c1)nc(Cc1ccco1)n2C1CCCCC1C (single isomer, unassigned) [Example 433]
Second: CC[C@H](C)[C@H](NC(=O)c1ccc2c(c1)nc(Cc1cccs1)n2[C@@H]1CCCC[C@H]1C)C(=O)O [Example 92, (2S,3S)-3-Methyl-2-{[1-((1R,2R)-2-methyl-cyclohexyl)-2-thiophen-2-ylmethyl-1H-benzoimidazole-5-carbonyl]-amino}-pentanoic acid]
The EC50 of the first is higher: 1.72 µM for the first, < 0.041 µM for the second. The second is the more potent here.

First: CC(C)C[C@@H](CCC(=O)O)NC(=O)c1ccc2c(c1)nc(Cc1cccs1)n2C1CCCCC1C(F)(F)F (stereo partly drawn) [Example 69, (R)-6-Methyl-4-{[2-thiophen-2-ylmethyl-1-(2-trifluoromethyl-cyclohexyl)-1H-benzoimidazole-5-carbonyl]-amino}-heptanoic acid]
Second: CCC(C)n1c(Cc2cccs2)nc2cc(C(=O)N[C@@H](CC3CCCCC3)C(=O)O)ccc21 (stereo partly drawn) [Example 140, (S)-2-[(1-sec-Butyl-2-thiophen-2-ylmethyl-1H-benzoimidazole-5-carbonyl)-amino]-3-cyclohexyl-propionic acid]
The EC50 of the first is 11-fold lower: 0.339 µM for the first, 3.8 µM for the second. The first is the more potent here.

CCC(CC)n1c(Cc2cccs2)nc2cc(C(=O)N[C@@H](CC(C)C)C(=O)NCc3ccc(F)cc3)ccc21 [Example 244, 1-(1-Ethyl-propyl)-2-thiophen-2-ylmethyl-1H-benzoimidazole-5-carboxylic acid [(S)-1-(4-fluoro-benzylcarbamoyl)-3-methyl-butyl]-amide] and CCC(CC)n1c(Cc2cccs2)nc2cc(C(=O)N[C@@H](CC(C)C)C(=O)NCc3cccs3)ccc21 [Example 222, 1-(1-Ethyl-propyl)-2-thiophen-2-ylmethyl-1H-benzoimidazole-5-carboxylic acid {(S)-3-methyl-1-[(thiophen-2-ylmethyl)-carbamoyl]-butyl}-amide] are within 1.5-fold of each other in EC50: 4.28 µM for the first, 3.99 µM for the second.

First: CCC(CC)n1c(Cc2ccco2)nc2cc(C(=O)NC(C)(Cc3ccccc3)C(=O)O)ccc21 (stereo not drawn) [Example 2, 2-{[1-(1-Ethyl-propyl)-2-furan-2-ylmethyl-1H-benzoimidazole-5-carbonyl]-amino}-2-methyl-3-phenyl-propionic acid]
Second: CCC(CC)n1c(Cc2cccs2)nc2cc(C(=O)N[C@@H](CC(C)C)C(=O)N(C)C3CCOCC3)ccc21 [Example 377, 1-(1-Ethyl-propyl)-2-thiophen-2-ylmethyl-1H-benzoimidazole-5-carboxylic acid {(S)-3-methyl-1-[methyl-(tetrahydro-pyran-4-yl)-carbamoyl]-butyl}-amide]
The EC50 of the first is 18-fold higher: 20.1 µM for the first, 1.14 µM for the second.

First: CCC(CC)n1c(Cc2cccs2)nc2cc(C(=O)N[C@@H](CC(C)C)C(=O)N(CCOC)CCOC)ccc21 [Example 363, 1-(1-Ethyl-propyl)-2-thiophen-2-ylmethyl-1H-benzoimidazole-5-carboxylic acid {(S)-1-[bis-(2-methoxy-ethyl)-carbamoyl]-3-methyl-butyl}-amide]
Second: CC(C)C[C@H](NC(=O)c1ccc2c(c1)nc(Cc1cccs1)n2C(C(C)C)C(C)C)C(=O)O [Example 164, (S)-2-{[1-(1-Isopropyl-2-methyl-propyl)-2-thiophen-2-ylmethyl-1H-benzoimidazole-5-carbonyl]-amino}-4-methyl-pentanoic acid]
The EC50 of the first is 3.7-fold lower: 1.72 µM for the first, 6.35 µM for the second.
